Assay results published in patent publication US12102706B2, “Peptide composition and respective uses” (Universidade do Minho, priority 2013, dated 2024).
“And” between values parts separate entries of the source, which are not always exact repeats. Equal values may be shown once.

Experiments:
[1] = Mechanical test (Young modulus) of bleached human hair treated with serum or mask, with and without peptide (Example 1); details: formulations containing the peptide vs without peptide
Protocol: The tests were performed with in human hair after 8 treatments of bleaching, at 50° C. in 0.1 M Na2CO3/NaHCO3 buffer, at pH=9, 10% H2O2, for 1 hour.
Each of the formulations was tested with and without the peptide sequence ID NO:5, which contains in the sequence 15% of cysteine.
The hair mask was applied to the hair after 8 bleaching treatments, being left to act for 15 minutes, mimicking the procedure indicated in commercial masks. Posteriorly, the hair was washed. The serum was applied to the hair after 8 bleaching treatments, being left to act for 1 hour at 37° C. Posteriorly, the hair was not washed, as in typical commercial procedures the serum should be applied in dry hair. The hair was also tested after 5 applications.
After the treatment, mechanical tests were performed, using a cell with 2.5 N maximum load and a deformation rate of 1.5 mm/min. Each hair was individually mounted in the tensile jig by means of a paper template with a fixed gauge length of 20 mm.

keratin = experiment: Binding of Alexa Fluor 647-marked keratin to peptides attached to glass, microarray scanner intensity (Example 4); design: species or system human; details: peptide 15 fmol/mm2 on glass; keratin 1 μg/mL, 2 hours at 37° C.; three replicas
Protocol: In order to assess the interactions between the keratin and some peptides, a keratin solution was prepared. This procedure was performed by immersing African hair, acquired from the International Hair Importers and Products, Inc. (New York), in a solution containing 8 M urea, 0.2 M sodium dodecyl sulfate and 0.5 M sodium bisulfate. The mixture was heated to 50° C. for 24 h in a shaker bath. The solution was dialyzed for several days against double-distilled water. The keratin solution was then concentrated using AMICON with a 3 kDa cut-off.
The reaction was incubated for 1 h30 min at room temperature and in the dark.
The keratin was then diluted to 1 μg/mL in blocking buffer (3% BSA in tris-buffered saline (TBS) with 0.05% Tween 20).
After incubation, the glasses were rinsed in successive washing solutions: TBS+0.1% Tween 20 and blocking buffer with 3% BSA in TBS+0.1% Tween 20, for 3 minutes in each solution.
The imaging of the glasses was performed in Agilent G2565CA Microarray Scanner System. Three replicas of the each peptide incubation were performed and analyzed.

[2] = Mechanical resistance test (Young modulus) of bleached human hair after direct application of peptide (Example 2); details: peptide treatment after bleaching
Protocol: The hair was supplied from International Hair Importers and Products, Inc. (New York). Hair fibers were pre-treated by bleaching. The formulation was tested in different hair types: • virgin hair washed, with the cuticle intact and absence of chemical damages; • hair after 8 bleaching treatments, at 50° C. in 0.1 M Na2CO3/NaHCO3 buffer, at pH=9, 10% H2O2, for 1 hour.
The incorporation of the peptides was performed by direct application in the hair surface. The mechanical resistance tests were performed after the treatment of the hair with the peptide.
The measurements of mechanical resistance were performed using a cell with 2.5 N maximum load and a deformation rate of 1.5 mm/min. Each hair was individually mounted in the tensile jig by means of a paper template with a fixed gauge length of 20 mm.

[3] = Mechanical tests (Young modulus, maximum load, stretching) of relaxed (reduced) human hair after peptide treatment (Example 3)
Protocol: The formulation was tested in different hair types: • virgin hair washed, with the cuticle intact and absence of chemical damages; • hair after reduction treatment, at 37° C. in phosphate buffer at pH=8, with 3M GndHCl and 0.05M DTT for 2 hours.
For the treatment with the peptide SEQ ID NO: 412, concentrations of 0.01% (w/w) were used.

Sequence | Intensity level (average ± standard deviation), normalized (keratin) | further results
GVCGPSPPCI (listed as Homo sapiens) [SEQ.ID NO:5] |  | mechanical resistance of the damaged hair [1]: increase in mechanical resistance
SCCAPVYCCK (listed as Homo sapiens) [SEQ.ID NO:951] | 1 and 1.000 ± 0.000 | 
GGVCGPSPPC (listed as Homo sapiens) [SEQ.ID NO:409] |  | Young modulus [2]: 5649±1022 MPa
ASCVSLLCRP (listed as Homo sapiens) [SEQ.ID NO:179] | 0.990±0.014 | 
CGPSPPCITT (listed as Homo sapiens) [SEQ.ID NO:412] |  | hair stretching (average) ([3]; relaxed hair after peptide treatment): 72%; maximum load test, maximum of resistance ([3]; relaxed hair fiber after peptide treatment): 126 MPa; Young modulus (average) ([3]; relaxed hair fiber after peptide treatment at 0.01%): 4190 MPa
CISSSCCPSCC (listed as Homo sapiens) [SEQ.ID NO:1108] | 1 and 1.000 ± 0.000 | 
CLPCLPAASC (listed as Homo sapiens) [SEQ.ID NO:75] | 1 and 1.000 ± 0.000 | 
CEPAICEPSC (listed as Homo sapiens) [SEQ.ID NO:432] | 1 and 1.000 ± 0.000 | 
CQCSCCKPYCS (listed as Homo sapiens) [SEQ.ID NO:1131] | 1 and 1.000 ± 0.000 | 
